Source: patent US7595327B2, “Beta-sulfonamide hydroxamic acid inhibitors of tace/matrix metalloproteinase” (priority 2005, dated 2009)
Where a name gives a salt, the structure may show the parent alone.

Tests used:
[1] = test system: TNF-α secretion in Raw 264.7 cells; test: Cell-based assay for inhibition of TNF-α secretion in Raw cells; conditions: Mus musculus, RAW264.7, LPS 100 ng/ml, 4 hr
Protocol: The basic measurement of the assay is the percentage of inhibition of TNF-α secretion and the IC50 determination by a fitting with the model-39 of LSW data analysis tool. […] Cells are split twice a week by scraping and 1 to 10 or 20 dilutions. For testing compounds, cells are cultured to confluence and are seeded the day before the experiment in 24 well culture dishes at 0.5 to 1 million/ml well. On the next morning, the medium from the overnight culture is replaced with the fresh growth medium. The compounds are added at various concentration at the 0.2% of final DMSO concentrations (10 μl of a 20% DMSO solution containing testing compounds is added to each well). The cells are pre-incubated with compounds for 1 hr. LPS (Sigma, L2262) is added to cells at a final concentration of 100 ng/ml (10 μl of a […] LPS solution freshly diluted from a 1 mg/ml LPS stock solution in PBS is added to each well) and cells are further incubated for 4 hr at 37° C. 1 ml of the supernatant was collected, cells are spun down and the supernatants are frozen at −80° C. until use. The TNF-α and other proinflammatory cytokines were detected by an ELISA assay according to the manufacturer's instructions (Biosource International, Inc., Camarillo, Calif. (For IL-1b measurement in Raw cells, one round of freeze and thaw of the cells was required).

[2] = target: T1, recombinant human MMP-2 (Homo sapiens, UniProt P08253); test: In-vitro fluorescence assay of MMP-2 activity; format: biochemical
T1 sequence (P08253 110-660): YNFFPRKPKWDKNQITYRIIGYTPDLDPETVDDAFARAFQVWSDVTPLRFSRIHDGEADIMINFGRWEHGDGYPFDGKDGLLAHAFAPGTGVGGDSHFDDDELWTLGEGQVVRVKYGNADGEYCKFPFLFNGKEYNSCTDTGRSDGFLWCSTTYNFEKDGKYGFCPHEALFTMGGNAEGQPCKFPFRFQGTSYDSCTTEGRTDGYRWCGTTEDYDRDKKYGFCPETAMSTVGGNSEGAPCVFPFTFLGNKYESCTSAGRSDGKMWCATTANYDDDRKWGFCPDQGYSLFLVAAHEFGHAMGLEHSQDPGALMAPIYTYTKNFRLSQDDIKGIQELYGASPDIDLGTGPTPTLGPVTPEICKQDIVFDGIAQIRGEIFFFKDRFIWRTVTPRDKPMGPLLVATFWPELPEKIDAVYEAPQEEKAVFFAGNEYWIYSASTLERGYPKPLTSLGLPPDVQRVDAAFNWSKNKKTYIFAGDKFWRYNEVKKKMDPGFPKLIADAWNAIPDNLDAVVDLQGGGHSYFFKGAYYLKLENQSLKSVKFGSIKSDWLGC

[3] = target: MMP-13 (Homo sapiens, UniProt P45452); test: In-vitro fluorescence assay of MMP-13 activity; format: biochemical
Protocol: See Knight, C. […] […].
The method was essentially the same as for the determination of MMP-1 activity, described above, except that the final concentration of purified MMP in the assay was 0.5 nM, prepared by diluting with the assay buffer.

[4] = target: T2, TACE (catalytic domain of the recombinant TACE protein) (Homo sapiens, UniProt P78536); test: TACE FRET assay using TACE Cat; format: biochemical; conditions: FRET, pro-TNF-α substrate peptide; read-out: TACE IC50
T2 construct: The catalytic domain of the recombinant TACE protein was expressed and purified; made in house
Protocol: The procedure is essentially as described in Jin, G. et al., Analytical Biochemistry (2002) 302, 269-275, incorporated by reference herein in its entirety. […] K is the IC50. Generally, n and B are floated, noting that n (hill slope) should be close to 1 and B (background offset) to 0.
Pro-TNF-α substrate peptide Abz-[…]-Dpa (AnaSpec, San Jose, Calif., WARC-1) was prepared as a 2 mM stock solution in the TACE assay buffer (50 mM Tris-HCI, pH 7.4, 25 mM NaCl, 4% Glycerol, 0.005% Brij 35). The catalytic domain of the recombinant TACE protein was expressed and purified. The TACE protein (1 ug/ml) was pretreated with the inhibitors at various concentrations for 10 min at room temperature. The reaction was initiated by the addition of the substrate peptide. The increase in fluorescence was monitored at an Excitation of 320 nm and an Emission of 420 nm over a period of 10 min. The initial rate (slope) of the reaction was determined using a fluorescence plate reader (Molecular Devices, Spectra Max Gemini XS).

[5] = test system: LPS-induced TNF-α secretion in human whole blood; test: Human whole blood assay for LPS-induced TNF-α secretion; format: cell-based; conditions: Homo sapiens, LPS 100 ng/ml, read-out: TNF Secretion HWB IC50
Protocol: procedure is essentially as described in Newton, R. C., et al., (2001) Ann Rheum […]32, incorporated by reference herein in its entirety. The basic measurement of the assay is the percentage of inhibition of TNF-α secretion and the IC50 determination by a […] model-39 of LSW data analysis tool. 350 μl of fresh human blood drawn from healthy volunteers were pre-incubated with compounds for one hour at the various concentrations at 37° C. with turning generally, the final DMSO concentrations should be kept below 0.2%. At the end of cubation, LPS (Sigma, L2262) was added to the blood at 100 ng/ml and the samples were further incubated for 4 hours or overnight at 37° C. with constant rotation. At the end of the incubation period, 650 μl of serum-free medium was added to the blood samples and the samples were centrifuged at 1500 rpm for 15 minutes. 500 μl of supernate was collected and frozen at -80° C. The TNF-α and other proinflammatory cytokines were detected by ELISA assay according to the manufacturer's instruction (Biosource International, Inc., Camarillo, Calif.).

T2 sequence (P78536 223-474 limits assumed): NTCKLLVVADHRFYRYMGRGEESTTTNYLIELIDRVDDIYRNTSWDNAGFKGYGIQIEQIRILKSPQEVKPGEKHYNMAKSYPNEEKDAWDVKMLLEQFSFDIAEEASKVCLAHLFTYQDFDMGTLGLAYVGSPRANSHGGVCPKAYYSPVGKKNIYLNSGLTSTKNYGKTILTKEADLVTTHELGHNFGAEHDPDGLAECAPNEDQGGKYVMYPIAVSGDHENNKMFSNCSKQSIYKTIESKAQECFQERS

SMILES | IC50 [1] [nM] | IC50 [2] [nM] | IC50 [3] [nM] | IC50 [4] [nM] | IC50 [5] [nM]
Cc1cc(COc2ccc(S(=O)(=O)N[C@@H]3CN(C(=O)OC(C)(C)C)CCC3C(=O)NO)cc2)c2ccccc2n1 (stereo in doubt) [Example 33, (3S,4R)-4-Hydroxycarbamoyl-3-[4-(2-methyl-quinolin-4-ylmethoxy)-benzenesulfonylamino]-piperidine-1-carboxylic acid tert-butyl ester] | 58 | > 16700 | > 16700 | 0.7 | 4700
Cc1cc(COc2ccc(S(=O)(=O)N[C@@H]3CCN(C=O)C[C@@H]3C(=O)NO)cc2)c2ccccc2n1 [Example 29, (3S,4R)-1-Formyl-4-[4-(2-methyl-quinolin-4-ylmethoxy)-benzenesulfonylamino]-piperidine-3-carboxylic acid hydroxyamide] | 7 | > 16700 | 13200 | 0.8 | 86
Cc1cc(COc2ccc(S(=O)(=O)N[C@H]3CCN(C(=O)NC(C)(C)C)C[C@H]3C(=O)NO)cc2)c2ccccc2n1 [Example 30, (3S,4R)-4-[4-(2-Methyl-quinolin-4-ylmethoxy)-benzenesulfonylamino]-piperidine-1,3-dicarboxylic acid 1-tert-butylamide 3-hydroxyamide] | 30 | > 10000 | 9090 | < 0.6 | 250
Cc1cc(COc2ccc(S(=O)(=O)N[C@@H]3CCOC[C@]3(C)C(=O)NO)cc2)c2ccccc2n1 [Example 44, (3R,4R)-N-hydroxy-3-methyl-4-[({4-[(2-methylquinolin-4-yl)methoxy]phenyl}sulfonyl)amino]tetrahydro-2H-pyran-3-carboxamide] | 1670 | > 16700 | > 16700 | 0.5 | 46000
Cc1cc(COc2ccc(S(=O)(=O)N[C@@H]3CCOC[C@@]3(C)C(=O)NO)cc2)c2ccccc2n1 [Example 45, (3S,4R)-N-hydroxy-3-methyl-4-[({4-[(2-methylquinolin-4-yl)methoxy]phenyl}sulfonyl)amino]tetrahydro-2H-pyran-3-carboxamide] | 1920 | > 16700 | > 16700 | 6.2 | > 50000
Cc1cc(COc2ccc(S(=O)(=O)N[C@@H]3CCN(C=O)C[C@]3(O)C(=O)NO)cc2)c2ccccc2n1 [Example 46, 4-({4-[({(3R,4R)-1-Formyl-3-hydroxy-3-[(hydroxyamino)carbonyl]piperidin-4-yl}amino)sulfonyl]phenoxy}methyl)-2-methylquinolinium trifluoroacetic acid salt] | 160 | > 16700 | > 16700 | 1.4 | 2900

Continued, values first:

IC50 [1] [nM] | IC50 [2] [nM] | IC50 [3] [nM] | IC50 [4] [nM] | IC50 [5] [nM] | SMILES
> 1000 | > 16700 | > 16700 | 6.4 | > 50000 | CC(=O)N1CC[C@@H](NS(=O)(=O)c2ccc(OCc3cc(C)nc4ccccc34)cc2)[C@@](C)(C(=O)NO)C1 [Example 47, (3S,4R)-1-acetyl-N-hydroxy-3-methyl-4-[({4-[(2-methylquinolin-4-yl)methoxy]phenyl}sulfonyl)amino]piperidine-3-carboxamide]
> 1000 | > 16700 | > 16700 | 211 | > 50000 | Cc1cc(COc2ccc(S(=O)(=O)N[C@@H]3CCN(C(C)C)C[C@]3(C)C(=O)NO)cc2)c2ccccc2n1 [Example 48, (3S,4R)-N-hydroxy-1-isopropyl-3-methyl-4-[({4-[(2-methylquinolin-4-yl)methoxy]phenyl}sulfonyl)amino]piperidine-3-carboxamide]
> 1000 | > 16700 | > 16700 | 19 | > 50000 | C#CCN1CC[C@@H](NS(=O)(=O)c2ccc(OCc3cc(C)nc4ccccc34)cc2)[C@@](C)(C(=O)NO)C1 [Example 49, (3S,4R)-N-hydroxy-3-methyl-4-[({4-[(2-methylquinolin-4-yl)methoxy]phenyl}sulfonyl)amino]-1-prop-2-yn-1-ylpiperidine-3-carboxamide]
> 1000 | > 16700 | > 16700 | 3.7 | 22000 | CNC(=O)N1CC[C@@H](NS(=O)(=O)c2ccc(OCc3cc(C)nc4ccccc34)cc2)[C@@](C)(C(=O)NO)C1 [Example 50]
> 1000 | > 16700 | > 10000 | < 0.6 | 30000 | Cc1cc(COc2ccc(S(=O)(=O)N[C@@H]3CCN(C=O)C[C@]3(C)C(=O)NO)cc2)c2ccccc2n1 [Example 51, (3S,4R)-1-formyl-N-hydroxy-3-methyl-4-[({4-[(2-methylquinolin-4-yl)methoxy]phenyl}sulfonyl)amino]piperidine-3-carboxamide]
762 | > 16700 | > 10000 | 2.4 | 37000 | Cc1cc(COc2ccc(S(=O)(=O)N[C@@H]3CCN(S(=O)(=O)C(C)C)C[C@]3(C)C(=O)NO)cc2)c2ccccc2n1 [Example 52, (3S,4R)-N-hydroxy-1-(isopropylsulfonyl)-3-methyl-4-[({4-[(2-methylquinolin-4-yl)methoxy]phenyl}sulfonyl)amino]piperidine-3-carboxamide]
82 | > 16700 | > 16700 | 0.4 | 3600 | Cc1cc(COc2ccc(S(=O)(=O)N[C@@H]3CCC[C@]3(O)C(=O)NO)cc2)c2ccccc2n1 [Example 53, (1R,2R)-N,1-dihydroxy-2-[({4-[(2-methylquinolin-4-yl)methoxy]phenyl}sulfonyl)amino]cyclopentanecarboxamide]
19 | > 16700 | > 10000 | < 0.6 | 2300 | Cc1cc(COc2ccc(S(=O)(=O)N[C@@H]3CCC[C@]3(F)C(=O)NO)cc2)c2ccccc2n1 [Example 54, (1R,2R)-1-fluoro-N-hydroxy-2-[((4-[(2-methylquinolin-4-yl)methoxy]phenyl}sulfonyl)amino]cyclopentanecarboxamide]
